Laboratory results reported in US5571521A (priority 1995, dated 1996).
Where two headings read alike, the source gives them in different places.

Experiments:
[1] = system: Venturia inaequalis; assay: Control of apple scab on plants; format: in vivo; conditions: inoculated 24 hours after application
[2] = system: pure cultures of organisms; assay: Antibacterial action in pure cultures on blood agar plates; format: cell-based
[3] = system: Plasmopara viticola; assay: Control of grape downy mildew on plants; format: in vivo; conditions: for Percent Disease Control, Preventive: inoculated 24 hours after application; for Percent Disease Control, Curative: inoculated 24 hours before application
[4] = system: host tissue; assay: Toxicity toward host tissue
[5] = system: Candida Albicans; assay: Inhibition of microorganism growth in Miller-Hinton broth (Minimal Inhibitory Concentration); format: cell-based; conditions: Table 1, evaluated at 18 hours
Description: (§1) For each of the microorganisms listed below a culture was grown in Miller-Hinton broth (24 hour culture), and then diluted at a 1:100 ratio. This diluted culture was then grown for an additional two hours, after which the silver diphenyl hydantoin was added. […]

[6] = system: Staphloccoccus aereus; assay: as above; format: cell-based; conditions: Table 1, evaluated at 18 hours
Description: as §1

[7] = system: Klebsiella; assay: as above; format: cell-based; conditions: Table 1, evaluated at 18 hours
Description: as §1

[8] = system: Enterococcus (Group D Strep); assay: as above; format: cell-based; conditions: Table 1; 20 micrograms/ml; evaluated at 18 hours
Description: as §1

[9] = system: Pseudomonas aeruginosa; assay: as above; format: cell-based; conditions: Table 1, evaluated at 18 hours
Description: as §1

[10] = system: Seratia; assay: as above; format: cell-based, Serratia M.; conditions: Table 1, evaluated at 18 hours
Description: as §1

[11] = system: Cercospora arachidicola; assay: Control of peanut leafspot on plants; format: in vivo; conditions: for Percent Disease Control, Preventive: inoculated 24 hours after application; for Percent Disease Control, Curative: inoculated 24 hours before application
[12] = system: Phytophthora infestans; format: in vivo

## Silver Ammonium Diphenyl Hydantoin [Silver ammonium phenytoin]
[1]; 5 ppm
  Percent Disease Control, Preventive: 17%
[1]; 20 ppm
  Percent Disease Control, Preventive: 95%
[1]; 100 ppm
  Percent Disease Control, Preventive: 98%
[2]
  Antibacterial action: Antibacterial action, was also demonstrated
[3]; 5 ppm
  Percent Disease Control, Preventive: 24%
  Percent Disease Control, Curative: 0%
[3]; 20 ppm
  Percent Disease Control, Preventive: 49%
  Percent Disease Control, Curative: 0%
[3]; 100 ppm
  Percent Disease Control, Preventive: 87%
  Percent Disease Control, Curative: 0%
[4]
  toxicity toward host tissue: low toxicity toward host tissue
[5]; 20 micrograms/ml
  inhibition (Minimal Inhibitory Concentration table): +
[5]; 40 micrograms/ml
  inhibition (Minimal Inhibitory Concentration table): +
[6]; 20 micrograms/ml
  inhibition (Minimal Inhibitory Concentration table): +
[6]; 40 micrograms/ml
  inhibition (Minimal Inhibitory Concentration table): +
[7]; 1 microgram/ml
  inhibition (Minimal Inhibitory Concentration table): +
[7]; 10 micrograms/ml
  inhibition (Minimal Inhibitory Concentration table): +
[7]; 20 micrograms/ml
  inhibition (Minimal Inhibitory Concentration table): +
[8]
  inhibition (Minimal Inhibitory Concentration table): +
[9]; 20 micrograms/ml
  inhibition (Minimal Inhibitory Concentration table): +
[9]; 40 micrograms/ml
  inhibition (Minimal Inhibitory Concentration table): +
[10]; 10 micrograms/ml
  inhibition (Minimal Inhibitory Concentration table): +
[10]; 20 micrograms/ml
  inhibition (Minimal Inhibitory Concentration table): +
[10]; 40 micrograms/ml
  inhibition (Minimal Inhibitory Concentration table): +
[11]; 5 ppm
  Percent Disease Control, Preventive: 16%
  Percent Disease Control, Curative: 0%
[11]; 20 ppm
  Percent Disease Control, Curative: 0%
[11]; 100 ppm
  Percent Disease Control, Preventive: 78%
  Percent Disease Control, Curative: 60%
[12]; 5 ppm
  Percent Disease Control: 17%
[12]; 20 ppm
  Percent Disease Control: 95%
[12]; 100 ppm
  Percent Disease Control: 98%
